Assay results as given in ChEMBL document CHEMBL3739267, “Synthesis of 2,6-dicarbethoxy-3,5-diaryltetrahydro-1,4-thiazine-1,1-dioxide derivatives as potent anticonvulsant agents” (Eur J Med Chem, 2015).
The source made the active and inactive calls. The rule behind the calls is not given here.

Legend:
Mus musculus [1] = test: Protective index, ratio of TD50 for ip dosed Swiss albino mouse assessed as inability of animal to maintain equilibrium on rod after 0.5 hrs by rotarod test to ED50 for Swiss albino mouse assessed as reduction of maximal electroshock-induced seizure; type: functional
[2] = (§1) Neurotoxicity in ip dosed Swiss albino mouse assessed as inability of animal to maintain equilibrium on rod after 0.5 hrs by rotarod test; type: toxicity, organism-based; settings: Swiss albino, in vivo
Mus musculus [3] = test: Anticonvulsant activity in ip dosed Swiss albino mouse assessed as reduction of subcutaneous pentylenetetrazole-induced seizure; type: functional
Mus musculus [4] = test: Neurotoxicity in Swiss albino mouse assessed as inability of animal to maintain equilibrium on rod at 300 mg/kg, ip after 4 hrs by rotarod test; type: toxicity, organism-based; settings: in vivo
Mus musculus [5] = test: Anticonvulsant activity in ip dosed Swiss albino mouse assessed as reduction of maximal electroshock-induced seizure; type: functional
Mus musculus [6] = test: Anticonvulsant activity in ip dosed Swiss albino mouse assessed as reduction of subcutaneous pentylenetetrazole-induced seizure after 0.5 hrs; type: functional; settings: read-out: MED
Mus musculus [7] = test: Neurotoxicity in Swiss albino mouse assessed as inability of animal to maintain equilibrium on rod at 300 mg/kg, ip after 0.5 hrs by rotarod test; type: toxicity, organism-based; settings: in vivo
Mus musculus [8] = test: Anticonvulsant activity in ip dosed Swiss albino mouse assessed as reduction of maximal electroshock-induced seizure after 0.5 hrs; type: functional; settings: read-out: MED
Mus musculus [9] = test: Anticonvulsant activity in ip dosed Swiss albino mouse assessed as reduction of subcutaneous pentylenetetrazole-induced seizure after 4 hrs; type: functional; settings: read-out: MED
Mus musculus [10] = test: Anticonvulsant activity in ip dosed Swiss albino mouse assessed as reduction of maximal electroshock-induced seizure after 4 hrs; type: functional; settings: read-out: MED
Mus musculus [11] = test: Protective index, ratio of TD50 for ip dosed Swiss albino mouse assessed as inability of animal to maintain equilibrium on rod after 0.5 hrs by rotarod test to ED50 for Swiss albino mouse assessed as subcutaneous pentylenetetrazole-induced seizure; type: functional
Mus musculus [12] = test: Anticonvulsant activity in Swiss albino mouse assessed as reduction of subcutaneous pentylenetetrazole-induced seizure at 300 mg/kg, ip after 4 hrs; type: functional, organism-based
Mus musculus [13] = test: Neurotoxicity in ip dosed Swiss albino mouse assessed as inability of animal to maintain equilibrium on rod after 4 hrs by rotarod test; type: toxicity, organism-based; settings: in vivo
Mus musculus [14] = test: Anticonvulsant activity in Swiss albino mouse assessed as reduction of subcutaneous pentylenetetrazole-induced seizure at 300 mg/kg, ip after 0.5 hrs; type: functional, organism-based
Mus musculus [15] = test: as §1; type: toxicity, organism-based; settings: in vivo, 0.5 h
Mus musculus [16] = test: Anticonvulsant activity in Swiss albino mouse assessed as reduction of maximal electroshock-induced seizure at 300 mg/kg, ip after 0.5 hrs; type: functional, organism-based
Mus musculus [17] = test: Anticonvulsant activity in Swiss albino mouse assessed as reduction of maximal electroshock-induced seizure at 300 mg/kg, ip after 4 hrs; type: functional, organism-based

Structure (SMILES)	Ratio TD50/ED50 (Mus musculus [1])	TD50 at 0.5 h [2]	ED50 (Mus musculus [3])	Activity (Mus musculus [4])	ED50 (Mus musculus [5])	minimal effective dose (Mus musculus [6])	Activity (Mus musculus [7])	minimal effective dose (Mus musculus [8])	minimal effective dose (Mus musculus [9])	minimal effective dose (Mus musculus [10])	Ratio TD50/ED50 (Mus musculus [11])	Activity (Mus musculus [12])	MTC (Mus musculus [13])	Activity (Mus musculus [14])	MTC (Mus musculus [15])	Activity (Mus musculus [16])	Activity (Mus musculus [17])
CCOC(=O)C1C(c2cc3ccccc3nc2Cl)NC(c2cc3ccccc3nc2Cl)C(C(=O)OCC)S1(=O)=O (stereo not drawn)	10.3	128 mg/kg	62.7 mg/kg	Non-toxic	12.4 mg/kg	300 mg/kg	Non-toxic	30 mg/kg	300 mg/kg	100 mg/kg	2	–	–	–	–	–	–
CCOC(=O)C1C(c2cccnc2)NC(c2cccnc2)C(C(=O)OCC)S1(=O)=O (stereo not drawn)	–	–	–	–	–	–	Non-toxic	300 mg/kg	–	300 mg/kg	–	inactive	300 mg/kg	inactive	–	–	–
CCOC(=O)C1C(c2ccc(OC)c(OC)c2)NC(c2ccc(OC)c(OC)c2)C(C(=O)OCC)S1(=O)=O (stereo not drawn)	–	–	–	–	–	300 mg/kg	Non-toxic	100 mg/kg	–	300 mg/kg	–	inactive	300 mg/kg	–	–	–	–
NC(=O)N1c2ccccc2C=Cc2ccccc21 [CARBAMAZEPINE]	–	–	> 100 mg/kg	–	11.4 mg/kg	–	–	–	–	–	–	–	–	–	–	–	–
CCOC(=O)C1C(c2ccccn2)NC(c2ccccn2)C(C(=O)OCC)S1(=O)=O (stereo not drawn)	–	–	–	–	–	–	Non-toxic	300 mg/kg	–	300 mg/kg	–	inactive	300 mg/kg	inactive	–	–	–
CCOC(=O)C1C(c2ccc(OC)cc2)NC(c2ccc(OC)cc2)C(C(=O)OCC)S1(=O)=O (stereo not drawn)	–	–	–	–	–	300 mg/kg	Non-toxic	100 mg/kg	–	300 mg/kg	–	inactive	300 mg/kg	–	–	–	–
CCOC(=O)C1C(c2ccc[nH]2)NC(c2ccc[nH]2)C(C(=O)OCC)S1(=O)=O (stereo not drawn)	–	–	–	Non-toxic	–	300 mg/kg	–	100 mg/kg	–	300 mg/kg	–	inactive	–	–	300 mg/kg	–	–
CCOC(=O)C1C(c2cccc(Cl)c2)NC(c2cccc(Cl)c2)C(C(=O)OCC)S1(=O)=O (stereo not drawn)	–	–	–	Non-toxic	–	300 mg/kg	–	100 mg/kg	–	300 mg/kg	–	inactive	–	–	300 mg/kg	–	–
CCOC(=O)C1C(c2ccc3c(c2)OCO3)NC(c2ccc3c(c2)OCO3)C(C(=O)OCC)S1(=O)=O (stereo not drawn)	9	248 mg/kg	220 mg/kg	Non-toxic	27.4 mg/kg	300 mg/kg	Non-toxic	30 mg/kg	300 mg/kg	100 mg/kg	1.1	–	–	–	–	–	–
CCOC(=O)C1C(c2cc3ccccc3[nH]2)NC(c2cc3ccccc3[nH]2)C(C(=O)OCC)S1(=O)=O (stereo not drawn)	9	119 mg/kg	56.8 mg/kg	Non-toxic	13.2 mg/kg	300 mg/kg	Non-toxic	30 mg/kg	300 mg/kg	100 mg/kg	2.1	–	–	–	–	–	–
CCOC(=O)C1C(c2ccccc2Cl)NC(c2ccccc2Cl)C(C(=O)OCC)S1(=O)=O (stereo not drawn)	–	–	–	Non-toxic	–	300 mg/kg	Non-toxic	100 mg/kg	–	300 mg/kg	–	inactive	–	–	–	–	–
CCOC(=O)C1C(c2ccc(C)cc2)NC(c2ccc(C)cc2)C(C(=O)OCC)S1(=O)=O (stereo not drawn)	15.7	227 mg/kg	90.2 mg/kg	Non-toxic	14.4 mg/kg	300 mg/kg	Non-toxic	30 mg/kg	300 mg/kg	100 mg/kg	2.5	–	–	–	–	–	–
CCOC(=O)C1C(c2ccc([N+](=O)[O-])cc2)NC(c2ccc([N+](=O)[O-])cc2)C(C(=O)OCC)S1(=O)=O (stereo not drawn)	16.7	190 mg/kg	73.2 mg/kg	Non-toxic	11.4 mg/kg	300 mg/kg	Non-toxic	30 mg/kg	300 mg/kg	100 mg/kg	2.6	–	–	–	–	–	–
O=C1NC(=O)C(c2ccccc2)(c2ccccc2)N1 [PHENYTOIN]	–	–	> 300 mg/kg	–	9.8 mg/kg	100 mg/kg	–	30 mg/kg	–	30 mg/kg	–	inactive	100 mg/kg	inactive	100 mg/kg	–	–
CCOC(=O)C1C(c2ccsc2)NC(c2ccsc2)C(C(=O)OCC)S1(=O)=O (stereo not drawn)	–	–	–	–	–	300 mg/kg	Non-toxic	100 mg/kg	–	300 mg/kg	–	inactive	300 mg/kg	–	–	–	–
CCOC(=O)C1C(c2ccco2)NC(c2ccco2)C(C(=O)OCC)S1(=O)=O (stereo not drawn)	–	–	–	–	–	–	Non-toxic	300 mg/kg	–	300 mg/kg	–	inactive	300 mg/kg	inactive	–	–	–
CCCC(CCC)C(=O)O [VALPROIC ACID]	–	–	149 mg/kg	–	–	–	–	–	–	–	–	–	–	–	–	–	–
CCOC(=O)C1C(c2ccccc2)NC(c2ccccc2)C(C(=O)OCC)S1(=O)=O (stereo not drawn)	8.8	131 mg/kg	58.6 mg/kg	Non-toxic	14.8 mg/kg	300 mg/kg	Non-toxic	30 mg/kg	300 mg/kg	100 mg/kg	2.2	–	–	–	–	–	–
CCOC(=O)C1C(c2ccc(Cl)cc2)NC(c2ccc(Cl)cc2)C(C(=O)OCC)S1(=O)=O (stereo not drawn)	28.3	289 mg/kg	50.5 mg/kg	Non-toxic	10.2 mg/kg	100 mg/kg	Non-toxic	30 mg/kg	300 mg/kg	30 mg/kg	5.7	–	–	–	–	–	–
CCC1(C)CC(=O)NC1=O (stereo not drawn) [ETHOSUXIMIDE]	–	–	–	Non-toxic	–	100 mg/kg	Non-toxic	–	300 mg/kg	–	–	–	–	–	–	inactive	inactive
CCC1(c2ccccc2)C(=O)NC(=O)NC1=O [PHENOBARBITAL]	–	68.2 mg/kg	13.2 mg/kg	–	20.6 mg/kg	–	–	–	–	–	–	–	–	–	–	–	–
CCOC(=O)C1C(c2cccs2)NC(c2cccs2)C(C(=O)OCC)S1(=O)=O (stereo not drawn)	–	–	–	–	–	300 mg/kg	Non-toxic	100 mg/kg	–	300 mg/kg	–	inactive	300 mg/kg	–	–	–	–
